Results as given in US20060194837A1, “Tetrahydroisoquinoline compounds” (priority 2004, published 2006).
Like-named read-outs stand apart in the source and are kept apart here.

Legend:
[1] = molecular target: T1, human H3 receptor (Homo sapiens, UniProt Q9Y5N1); experiment: H3 receptor binding (N-[3H]-α-methylhistamine displacement); conditions: membranes of SK-N-MC cells expressing cloned human H3 receptor, 0.8 nM N-[3H]-α-methylhistamine, 60 min at 25° C.
T1 construct: expressed in transfected cells
Protocol: Briefly, cell pellets from SK-N-MC cells expressing the human H3 receptor were homogenized in 50 mM Tris-HCl/5 mM EDTA and re-centrifuged at 30,000 g for 30 min. Pellets were re-homogenized in 50 mM Tris/6 mM EDTA (pH 7.4). Membranes were incubated with 0.8 nM N-[^3H]-α-methylhistamine plus/minus test compounds for 60 min at 25° C. and harvested by rapid filtration over GF/C glass fiber filters (pretreated with 0.3% polyethylenimine) followed by four washes with ice-cold buffer. Nonspecific binding was defined in the presence of 10 μM histamine.

[2] = molecular target: T2, Rat SERT (Rattus norvegicus, UniProt P31652); experiment: Rat brain SERT binding ([3H]-citalopram displacement); conditions: rat brain membranes without cerebellum, 0.6 nM [3H]-citalopram, 60 min at 25° C.
T2 construct: A rat brain without cerebellum (Zivic Laboratories, Inc.—Pittsburgh, Pa.) was homogenized; tissue Zivic Laboratories, Inc; host or cells: rat brain without cerebellum, membranes
Protocol: The supernatant was removed and re-centrifuged at 15,000 rpm for 30 min. […] Membranes were incubated with 0.6 nM [^3H]-Citalopram plus/minus test compounds for 60 min at 25° C. and harvested by rapid filtration over GF/C glass fiber filters (pretreated with 0.3% polyethylenimine) followed by four washes with ice-cold buffer.

T2 sequence (P31652 whole entry): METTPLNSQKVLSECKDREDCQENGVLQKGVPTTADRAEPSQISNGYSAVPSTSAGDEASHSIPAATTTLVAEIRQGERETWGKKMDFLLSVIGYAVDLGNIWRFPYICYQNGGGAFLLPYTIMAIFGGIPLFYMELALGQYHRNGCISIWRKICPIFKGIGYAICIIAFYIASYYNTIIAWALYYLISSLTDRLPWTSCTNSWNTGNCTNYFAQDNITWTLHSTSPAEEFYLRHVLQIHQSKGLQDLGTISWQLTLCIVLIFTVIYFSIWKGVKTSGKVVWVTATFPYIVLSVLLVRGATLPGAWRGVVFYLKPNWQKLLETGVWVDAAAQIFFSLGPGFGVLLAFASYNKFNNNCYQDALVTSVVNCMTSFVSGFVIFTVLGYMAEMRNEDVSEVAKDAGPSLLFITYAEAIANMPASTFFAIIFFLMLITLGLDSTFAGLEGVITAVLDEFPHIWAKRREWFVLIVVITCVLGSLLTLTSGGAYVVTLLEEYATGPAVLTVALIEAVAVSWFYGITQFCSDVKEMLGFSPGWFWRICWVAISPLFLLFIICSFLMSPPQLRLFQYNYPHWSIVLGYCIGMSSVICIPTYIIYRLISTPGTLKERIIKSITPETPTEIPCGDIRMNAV
T1 sequence (Q9Y5N1 whole entry): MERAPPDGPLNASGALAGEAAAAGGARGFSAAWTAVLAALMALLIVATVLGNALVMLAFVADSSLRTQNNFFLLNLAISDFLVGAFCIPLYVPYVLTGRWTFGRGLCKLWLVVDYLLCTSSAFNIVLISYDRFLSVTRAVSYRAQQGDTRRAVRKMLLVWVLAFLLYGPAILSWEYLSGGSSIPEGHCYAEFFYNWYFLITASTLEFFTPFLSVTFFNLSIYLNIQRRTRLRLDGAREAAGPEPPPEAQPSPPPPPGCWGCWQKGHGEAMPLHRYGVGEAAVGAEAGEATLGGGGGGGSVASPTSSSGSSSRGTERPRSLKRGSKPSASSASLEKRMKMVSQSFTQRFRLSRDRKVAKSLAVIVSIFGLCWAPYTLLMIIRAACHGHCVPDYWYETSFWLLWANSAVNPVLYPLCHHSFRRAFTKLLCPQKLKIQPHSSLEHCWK

Compound	Ki [1] [nM]	Ki ([2]; read-out: Rat SERT Ki) [nM]	Ki ([2]; Rat SERT Ki (nM)) [nM]
COc1ccc(C2CN(C)Cc3cc(OCCCN4CCC[C@H]4C(F)(F)F)ccc32)cc1 (stereo partly drawn) [Example 28, 4-(4-Methoxy-phenyl)-2-methyl-7-[3-((2S)-trifluoromethyl-pyrrolidin-1-yl)-propoxy]-1,2,3,4-tetrahydro-isoquinoline]	140	12	
COc1ccc(C2CN(C)Cc3cc(OCC(F)CN4CCC(F)CC4)ccc32)cc1 (centres unmarked) [Example 43, 7-[2-Fluoro-3-(4-fluoro-piperidin-1-yl)-propoxy]-4-(4-methoxy-phenyl)-2-methyl-1,2,3,4-tetrahydro-isoquinoline]	18	3	
CN1Cc2cc(OCCCN3CCC(F)CC3)ccc2C(c2ccc(OC(F)(F)F)cc2)C1 (centres unmarked) [Example 49, 7-[3-(4-Fluoro-piperidin-1-yl)-propoxy]-2-methyl-4-(4-trifluoromethoxy-phenyl)-1,2,3,4-tetrahydro-isoquinoline]	18	14	
CN1Cc2cc(OCCCN3CCC(F)CC3)ccc2C(c2ccc(Cl)cc2Cl)C1 (centres unmarked) [Example 54, 4-(2,4-Dichloro-phenyl)-7-[3-(4-fluoro-piperidin-1-yl)-propoxy]-2-methyl-1,2,3,4-tetrahydro-isoquinoline]	16		32
CN1Cc2cc(OCCCN3CCC(F)CC3)ccc2C(c2cc(Cl)cc(Cl)c2)C1 (centres unmarked) [Example 56, 4-(3,5-Dichloro-phenyl)-7-[3-(4-fluoro-piperidin-1-yl)-propoxy]-2-methyl-1,2,3,4-tetrahydro-isoquinoline]	20	42	
COc1ccc(C2CN(C)Cc3cc(OCC4CCNCC4)ccc32)cc1 (centres unmarked) [Example 78, 4-(4-Methoxy-phenyl)-2-methyl-7-(piperidin-4-ylmethoxy)-1,2,3,4-tetrahydro-isoquinoline]	96	2	
COc1ccc(C2CN(C)Cc3cc(OCC4CCNCC4)ccc32)cc1Cl (centres unmarked) [Example 79, 4-(3-Chloro-4-methoxy-phenyl)-2-methyl-7-(piperidin-4-ylmethoxy)-1,2,3,4-tetrahydro-isoquinoline]	183	5	
CSc1ccc(C2CN(C)Cc3cc(OCC4CCNCC4)ccc32)cc1 (centres unmarked) [Example 80, 2-Methyl-4-(4-methylsulfanyl-phenyl)-7-(piperidin-4-ylmethoxy)-1,2,3,4-tetrahydro-isoquinoline]	130	3	
COc1ccc(C2CN(C)Cc3cc(OCC4CCNCC4)ccc32)cc1F (centres unmarked) [Example 81, 4-(3-Fluoro-4-methoxy-phenyl)-2-methyl-7-(piperidin-4-ylmethoxy)-1,2,3,4-tetrahydro-isoquinoline]	70	1	
COc1ccc(C2CN(C)Cc3cc(OCC4CCNCC4)ccc32)c(F)c1 (centres unmarked) [Example 82, 4-(2-Fluoro-4-methoxy-phenyl)-2-methyl-7-(piperidin-4-ylmethoxy)-1,2,3,4-tetrahydro-isoquinoline]	64	6	
COc1ccc(C2CN(C)Cc3cc(OCC4CCN(C5CCCC5)CC4)ccc32)cc1 (centres unmarked) [Example 86, 7-(1-Cyclopentyl-piperidin-4-ylmethoxy)-4-(4-methoxy-phenyl)-2-methyl-1,2,3,4-tetrahydro-isoquinoline]	11	5	
CCN1CCC(COc2ccc3c(c2)CN(C)CC3c2ccc(OC)cc2)CC1 (centres unmarked) [Example 87, 7-(1-Ethyl-piperidin-4-ylmethoxy)-4-(4-methoxy-phenyl)-2-methyl-1,2,3,4-tetrahydro-isoquinoline]	2	4	
COc1ccc(C2CN(C)Cc3cc(OCC4CCN(C(C)C)CC4)ccc32)cc1Cl (centres unmarked) [Example 88, 4-(3-Chloro-4-methoxy-phenyl)-7-(1-isopropyl-piperidin-4-ylmethoxy)-2-methyl-1,2,3,4-tetrahydro-isoquinoline]	3	15	
COc1ccc(C2CN(C)Cc3cc(OCC4CCN(C(C)C)CC4)ccc32)cc1F (centres unmarked) [Example 89, 4-(3-Fluoro-4-methoxy-phenyl)-7-(1-isopropyl-piperidin-4-ylmethoxy)-2-methyl-1,2,3,4-tetrahydro-isoquinoline]	2	5	
CCCN1CCC(COc2ccc3c(c2)CN(C)CC3c2cccc(OC)c2)CC1 (centres unmarked) [Example 93, 4-(3-Methoxy-phenyl)-2-methyl-7-(1-propyl-piperidin-4-ylmethoxy) 1,2,3,4-tetrahydro-isoquinoline]	6	22	
COc1cccc(C2CN(C)Cc3cc(OCC4CCN(C5CCCC5)CC4)ccc32)c1 (centres unmarked) [Example 94, 7-(1-Cyclopentyl-piperidin-4-ylmethoxy)-4-(3-methoxy-phenyl)-2-methyl-1,2,3,4-tetrahydro-isoquinoline]	4	15	
CCN1CCC(COc2ccc3c(c2)CN(C)CC3c2cccc(OC)c2)CC1 (centres unmarked) [Example 95, 7-(1-Ethyl-piperidin-4-ylmethoxy)-4-(3-methoxy-phenyl)-2-methyl-1,2,3,4-tetrahydro-isoquinoline]	2	15	
COc1cccc(C2CN(C)Cc3cc(OC4CCNCC4)ccc32)c1 (centres unmarked) [Example 96, 4-(3-Methoxy-phenyl)-2-methyl-7-(piperidin-4-yloxy)-1,2,3,4-tetrahydro-isoquinoline]	182	14	
COc1cccc(C2CN(C)Cc3cc(OC4CCN(C)CC4)ccc32)c1 (centres unmarked) [Example 97, 4-(3-Methoxy-phenyl)-2-methyl-7-(1-methyl-piperidin-4-yloxy)-1,2,3,4-tetrahydro-isoquinoline]	6	45	
COc1cccc(C2CN(C)Cc3cc(OC4CCN(C(C)C)CC4)ccc32)c1 (centres unmarked) [Example 98, 7-(1-Isopropyl-piperidin-4-yloxy)-4-(3-methoxy-phenyl)-2-methyl-1,2,3,4-tetrahydro-isoquinoline]	2	11	
COc1cccc(C2CN(C)Cc3cc(OC4CCN(C5CCC5)CC4)ccc32)c1 (centres unmarked) [Example 99, 7-(1-Cyclobutyl-piperidin-4-yloxy)-4-(3-methoxy-phenyl)-2-methyl-1,2,3,4-tetrahydro-isoquinoline]	2	20	

Continued, in another order:

Ki [1] [nM]	Ki ([2]; read-out: Rat SERT Ki) [nM]	Compound	Ki ([2]; Rat SERT Ki (nM)) [nM]
25	6	COc1ccc(C2CN(C)Cc3cc(OCCCN4Cc5ccccc5C4)ccc32)cc1 (centres unmarked) [Example 16, 7-[3-(1,3-Dihydro-isoindol-2-yl)-propoxy]-4-(4-methoxy-phenyl)-2-methyl-1,2,3,4-tetrahydro-isoquinoline]	
74	1	COc1ccc(C2CN(C)Cc3cc(OCCCN4C=NCCC4)ccc32)cc1 (centres unmarked) [Example 18, 7-[3-(5,6-Dihydro-4H-pyrimidin-1-yl)-propoxy]-4-(4-methoxy-phenyl)-2-methyl-1,2,3,4-tetrahydro-isoquinoline]	
2000	8	COc1ccc(C2CN(C)Cc3cc(OCCCN(C)c4nc5ccccc5s4)ccc32)cc1 (centres unmarked) [Example 19, Benzothiazol-2-yl-{3-[4-(4-methoxy-phenyl)-2-methyl-1,2,3,4-tetrahydro-isoquinolin-7-yloxy]-propyl}-methyl-amine]	
104	3	COc1ccc(C2CN(C)Cc3cc(OCCCN4CCS(=O)(=O)CC4)ccc32)cc1 (centres unmarked) [Example 27, 7-[3-(1,1-Dioxo-1λ^6-thiomorpholin-4-yl)-propoxy]-4-(4-methoxy-phenyl)-2-methyl-1,2,3,4-tetrahydro-isoquinoline]	
172	5	CCOC(=O)C1CCN(CCCOc2ccc3c(c2)CN(C)CC3c2ccc(OC)cc2)CC1 (centres unmarked) [Example 33, 1-{3-[4-(4-Methoxy-phenyl)-2-methyl-1,2,3,4-tetrahydro-isoquinolin-7-yloxy]-propyl}-piperidine-4-carboxylic acid ethyl ester]	
38	29	COc1ccc(C2CN(C)Cc3cc(OCCCN4CCC(C(F)(F)F)CC4)ccc32)cc1 (centres unmarked) [Example 38, 4-(4-Methoxy-phenyl)-2-methyl-7-[3-(4-trifluoromethyl-piperidin-1-yl)-propoxy]-1,2,3,4-tetrahydro-isoquinoline]	
14	6	COc1ccc(C2CN(C)Cc3cc(OCCCN4CCC5(CC4)OCCO5)ccc32)cc1 (centres unmarked) [Example 41, 7-[3-(1,4-Dioxa-8-aza-spiro[4.5]dec-8-yl)-propoxy]-4-(4-methoxy-phenyl)-2-methyl-1,2,3,4-tetrahydro-isoquinoline]	
7	3000	COc1ccc(C2CN(Cc3ccccc3)Cc3cc(OCCCN4CCCCC4)ccc32)cc1 (centres unmarked) [Example 65, 2-Benzyl-4-(4-methoxy-phenyl)-7-(3-piperidin-1-yl-propoxy)-1,2,3,4-tetrahydro-isoquinoline]	
0.5	104	CCCN1Cc2cc(OCCCN3CCCCC3)ccc2C(c2ccc(OC)cc2)C1 (centres unmarked) [Example 67, 4-(4-Methoxy-phenyl)-7-(3-piperidin-1-yl-propoxy)-2-propyl-1,2,3,4-tetrahydro-isoquinoline]	
1	49	COc1ccc(C2CN(CCCO)Cc3cc(OCCCN4CCCCC4)ccc32)cc1 (centres unmarked) [Example 70, 3-[4-(4-Methoxy-phenyl)-7-(3-piperidin-1-yl-propoxy)-3,4-dihydro-1H-isoquinolin-2-yl]-propan-1-ol]	
